The assay concerns P388 leukemia ip, CD2F1 mice, survival T/C. The assay can be described thus: NCI In Vivo Anticancer Drug Screen. Data for tumor model P388 Leukemia (intraperitoneal) in CD2F1 (CDF1) mice. The following applies: endpoint: median survival time, higher = longer survival. The essentials: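 Mice carrying the transplanted tumor received test compound or vehicle. Survival was recorded in each group, and the value is the treated-group measurement divided by that of the vehicle-treated control group.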

Setting [1] is: dose: 25.0 mg/kg/injection, schedule: Q01DX009 (ip), vehicle: saline with Tween-80.
[2] abbreviates: dose: 50.0 mg/kg/injection, schedule: Q01DX009 (ip), vehicle: saline with Tween-80.
Where [3] appears, read: dose: 100.0 mg/kg/injection, schedule: Q01DX009 (ip), vehicle: saline with Tween-80.
The mark [4] stands for this setting: dose: 50.0 mg/kg/injection, schedule: Q01DX005 (ip), vehicle: Klucel (hydroxypropylcellulose) (HPC).
Where [5] appears, read: dose: 100.0 mg/kg/injection, schedule: Q01DX005 (ip), vehicle: Klucel (hydroxypropylcellulose) (HPC).
Setting [6] is: dose: 200.0 mg/kg/injection, schedule: Q01DX005 (ip), vehicle: Klucel (hydroxypropylcellulose) (HPC).
Where [7] appears, read: dose: 100.0 mg/kg/injection, schedule: Q01DX001 (ip), vehicle: saline with Tween-80.
[8] abbreviates: dose: 50.0 mg/kg/injection, schedule: Q01DX005 (ip), vehicle: saline with Tween-80.
The mark [9] stands for this setting: dose: 100.0 mg/kg/injection, schedule: Q01DX005 (ip), vehicle: saline with Tween-80.
Where [10] appears, read: dose: 200.0 mg/kg/injection, schedule: Q01DX005 (ip), vehicle: saline with Tween-80.
[11] abbreviates: dose: 12.5 mg/kg/injection, schedule: Q01DX009 (ip), vehicle: saline with Tween-80.
The mark [12] stands for this setting: dose: 50.0 mg/kg/injection, schedule: Q01DX005 (ip), vehicle: saline.
[13] abbreviates: dose: 200.0 mg/kg/injection, schedule: Q01DX009 (ip), vehicle: saline with Tween-80.

Molecules are shown by their SMILES. “And” between values parts separate entries of the source, which are not always exact repeats. Identical values can stand only once. Toxic doses and inconclusive results are not listed.

`O=[N+]([O-])c1ccc2nc(Cl)sc2c1`: the T/C runs as follows: under setting [1], 95 % of control; under setting [2], 90 % of control; under setting [3], 109 % of control.

As to `O=C(NC(CO)C(=O)O)C(Cl)Cl` (stereo unspecified), the T/C runs as follows: under setting [4], 101 % of control; under setting [5], 95 % of control; under setting [6], 101 % of control.

With `[CH3][Sn]([CH3])([Cl])[Cl].c1ccc(-c2nnc(-c3ccccn3)nc2-c2ccccc2)cc1`, the T/C is 95 % of control (dose: 60.0 mg/kg/injection, schedule: Q01DX005 (ip), vehicle: Klucel (hydroxypropylcellulose) (HPC)); 94 % of control (dose: 120.0 mg/kg/injection, schedule: Q01DX005 (ip), vehicle: Klucel (hydroxypropylcellulose) (HPC)); 89 % of control (dose: 240.0 mg/kg/injection, schedule: Q01DX005 (ip), vehicle: Klucel (hydroxypropylcellulose) (HPC)).

As to `CCSc1nc(Cl)cc(Sc2nc(N)nc3nc[nH]c23)n1`, the T/C by setting is: (dose: 12.0 mg/kg/injection, schedule: Q01DX009 (ip), vehicle: saline with Tween-80) 90 % of control; (dose: 18.0 mg/kg/injection, schedule: Q01DX009 (ip), vehicle: saline with Tween-80) 90 % of control; (dose: 26.0 mg/kg/injection, schedule: Q01DX009 (ip), vehicle: saline with Tween-80) 100 % of control; (dose: 40.0 mg/kg/injection, schedule: Q01DX009 (ip), vehicle: saline with Tween-80) 104 % of control; (dose: 60.0 mg/kg/injection, schedule: Q01DX009 (ip), vehicle: saline with Tween-80) 100 % of control; (dose: 88.0 mg/kg/injection, schedule: Q01DX009 (ip), vehicle: saline with Tween-80) 90 % of control. Besides, under “dose: 132.0 mg/kg/injection, schedule: Q01DX009 (ip), vehicle: saline with Tween-80”, the T/C is 86 % of control.

As for `CN1CCN=C1c1ccc(NC(=O)c2ccc(C(=O)Nc3ccc(C4=NCCN4C)cc3)c(N)c2)cc1`, the T/C (dose: 1.32 mg/kg/injection, schedule: Q01DX009 (ip), vehicle: saline) was 120 % of control; the T/C (dose: 3.0 mg/kg/injection, schedule: Q01DX009 (ip), vehicle: saline) is 150 % of control; the T/C (dose: 5.0 mg/kg/injection, schedule: Q04DX003 (ip), vehicle: saline with Tween-80) was 95 % of control; the T/C (dose: 10.0 mg/kg/injection, schedule: Q04DX003 (ip), vehicle: saline with Tween-80) is 95 % of control; the T/C (dose: 20.0 mg/kg/injection, schedule: Q04DX003 (ip), vehicle: saline with Tween-80) is 90 % of control.

Turning to `COc1ccc2c(c1)[C@]13CCN(N=O)[C@H](C2)[C@@H]1CCC(=O)C3`, the T/C is, setting by setting: (dose: 25.0 mg/kg/injection, schedule: Q01DX001 (ip), vehicle: saline with Tween-80) 92 % of control; (dose: 50.0 mg/kg/injection, schedule: Q01DX001 (ip), vehicle: saline with Tween-80) 108 % of control; under setting [7], 106 % of control and 92 % of control.

Consider `N#C/C(N)=C(\C#N)N=Cc1ccc(-c2ccccc2)cc1`, for which the T/C reads like this: under setting [7], 90 % of control; (dose: 200.0 mg/kg/injection, schedule: Q01DX001 (ip), vehicle: saline with Tween-80) 90 % of control; (dose: 400.0 mg/kg/injection, schedule: Q01DX001 (ip), vehicle: saline with Tween-80) 86 % of control.

As for `O=C(O)c1ccccc1SSc1ccccc1C(=O)O`, the T/C (dose: 50.0 mg/kg/injection, schedule: Q01DX009 (ip), vehicle: Klucel (hydroxypropylcellulose) (HPC)) was 96 % of control and the T/C (dose: 100.0 mg/kg/injection, schedule: Q01DX009 (ip), vehicle: Klucel (hydroxypropylcellulose) (HPC)) was 102 % of control.

`C#Cc1cccc(N=Cc2cc([N+](=O)[O-])cc(Br)c2O)c1`: the T/C under setting [8] is 100 % of control, the T/C under setting [9] is 105 % of control and the T/C under setting [10] was 105 % of control.

Consider `O=c1nc(Nc2cccc(Cl)c2)oc2cc(Cl)oc(=O)c12`, for which the T/C was 109 % of control under setting [11]; 109 % of control under setting [1]; 113 % of control and 115 % of control under setting [2]; 95 % of control under setting [3].

For the compound `Nc1cc2c3c(cccc3c1)C(=O)N(CCN1CCCC1)C2=O`, the T/C runs as follows: (dose: 6.25 mg/kg/injection, schedule: Q01DX009 (ip), vehicle: saline with Tween-80) 102 % of control; (dose: 6.5 mg/kg/injection, schedule: Q01DX009 (ip), vehicle: saline with Tween-80) 122 % of control; (dose: 12.1 mg/kg/injection, schedule: Q01DX009 (ip), vehicle: saline with Tween-80) 163 % of control; under setting [11], 110 % of control; (dose: 24.2 mg/kg/injection, schedule: Q01DX009 (ip), vehicle: saline with Tween-80) 160 % of control and 180 % of control; (dose: 48.39 mg/kg/injection, schedule: Q01DX009 (ip), vehicle: saline with Tween-80) 86 % of control and 96 % of control. Also, the T/C is, setting by setting: under setting [2], 173 % of control; under setting [3], 189 % of control.

As to `COC(=O)/C(C#N)=C/c1cc(OC)c(O)cc1Br`, the T/C by setting is: (dose: 25.0 mg/kg/injection, schedule: Q01DX005 (ip), vehicle: Klucel (hydroxypropylcellulose) (HPC)) 104 % of control; under setting [4], 104 % of control and 88 % of control; under setting [5], 105 % of control; under setting [6], 100 % of control.

Turning to `COc1ccc2c(c1)OCCN(C)OC2c1cccc(Cl)c1` (stereo unspecified), the T/C is, setting by setting: under setting [8], 107 % of control; under setting [9], 99 % of control; under setting [10], 92 % of control.

Turning to `CCCCCCCCCCCCC1=C(O)C(=O)C=C(O)C1=O`, the T/C runs as follows: (dose: 12.5 mg/kg/injection, schedule: Q01DX005 (ip), vehicle: suspension in saline) 102 % of control; (dose: 25.0 mg/kg/injection, schedule: Q01DX005 (ip), vehicle: suspension in saline) 108 % of control; under setting [12], 99 % of control; (dose: 50.0 mg/kg/injection, schedule: Q01DX005 (ip), vehicle: suspension in saline) 112 % of control.

On to `CCC[CH2][Sn]([F])([CH2]CCC)[O][Sn]([F])([CH2]CCC)[CH2]CCC`, for which the T/C runs as follows: (dose: 100.0 mg/kg/injection, schedule: Q04DX003 (ip), vehicle: saline) 101 % of control; (dose: 200.0 mg/kg/injection, schedule: Q04DX003 (ip), vehicle: saline) 105 % of control.

For `CCOC(C)c1nc2c([nH]1)c(=O)n(C)c(=O)n2C` (stereo unspecified), the T/C (dose: 60.0 mg/kg/injection, schedule: Q01DX005 (ip), vehicle: saline) was 99 % of control; the T/C (dose: 120.0 mg/kg/injection, schedule: Q01DX005 (ip), vehicle: saline) is 101 % of control; the T/C (dose: 240.0 mg/kg/injection, schedule: Q01DX005 (ip), vehicle: saline) was 95 % of control.

`C[C@]12CC[C@@H]3c4cc(N)c(O)cc4CC[C@H]3[C@@H]1CC[C@@H]2O`: the T/C runs as follows: under setting [8], 100 % of control; under setting [9], 103 % of control; under setting [10], 100 % of control.

Take `CCC1CN1P(=O)(Oc1ccc2ccccc2c1)N1CC1CC` (stereo unspecified): the T/C was 104 % of control (dose: 44.0 mg/kg/injection, schedule: Q04DX003 (ip), vehicle: saline with Tween-80); 173 % of control under setting [2]; 109 % of control (dose: 66.0 mg/kg/injection, schedule: Q04DX003 (ip), vehicle: saline with Tween-80); 155 % of control and 177 % of control under setting [3]; 100 % of control (dose: 150.0 mg/kg/injection, schedule: Q01DX009 (ip), vehicle: saline with Tween-80); 240 % of control (dose: 150.0 mg/kg/injection, schedule: Q04DX003 (ip), vehicle: saline with Tween-80). Besides, the T/C under setting [13] was 170 % of control.

Turning to `O=C1OC[C@@H]2C=CC[C@H]12`, the T/C by setting is: under setting [12], 100 % of control; (dose: 100.0 mg/kg/injection, schedule: Q01DX005 (ip), vehicle: saline) 100 % of control; (dose: 200.0 mg/kg/injection, schedule: Q01DX005 (ip), vehicle: saline) 107 % of control.

For the compound `Cn1c(/C=N/N2CCOCC2)cnc1[N+](=O)[O-]`, the T/C by setting is: under setting [2], 106 % of control; under setting [3], 109 % of control; under setting [13], 110 % of control.

Values taken from PubChem BioAssay AID330 (DTP/NCI, 2004).
